In patent US20030224978A1, “Compounds and methods for modulating apoptosis” (McGill University, priority 1996, published 2003):
Entries after “also recorded” stand apart in the source; their conditions may differ. Positions of bridges follow the written chain, without caps; N, C: chain ends. Residues, ends and D or L forms follow the SMILES beside them.

Experiments:
Format in all cases: cell-based
control 3T3 cells = assay: Neurite outgrowth of rat cerebellar neurons on control 3T3 cells (Example 14); conditions: increasing concentrations
Protocol: Cell culture and neurite outgrowth assays. Co-cultures of cerebellar neurons on monolayers of control 3T3 cells and monolayers of transfected 3T3 cells that express physiological levels of chick N-cadherin or human L1 were established as previously described (Williams et al., Neuron 13:583-594, 1994). In brief, 80,000 3T3 cells (control and transfected) were plated into individual chambers of an eight-chamber tissue culture slide coated with polylysine and fibronectin and cultured in DMEM/10% FCS. After 24 hours, when confluent monolayers had formed, the medium was removed and 3000 cerebellar neurons isolated from post-natal day 2-3 rats were plated into each well in SATO media (Doherty et al., Nature 343:464-466, 1990) supplemented with 2% FCS. All of the test peptides were added immediately before the neurons as a 2×stock prepared in SATO/2% FCS. […] The mean length of the longest neurite per cell was measured for 150-200 neurons sampled in replicate cultures as previously described (Williams et al., Neuron 13:583-594, 1994). […] Dose-response curves were evaluated and the EC50 values determined.
Effects of cyclic HAV peptides on N-cadherin function. […] The cells were then fixed and the length of the longest neurite on 150-200 neurons was determined by standard assay, as described above. […]

L1 = L1 (Homo sapiens, UniProt P32004); assay: Neurite outgrowth of mouse cerebellar neurons on 3T3 cells expressing L1 (Example 2); parameters: expressed in transfected cells; host or cells: 3T3 cells; conditions: 500 μg/mL
Sequence of L1 (P32004 20-1257): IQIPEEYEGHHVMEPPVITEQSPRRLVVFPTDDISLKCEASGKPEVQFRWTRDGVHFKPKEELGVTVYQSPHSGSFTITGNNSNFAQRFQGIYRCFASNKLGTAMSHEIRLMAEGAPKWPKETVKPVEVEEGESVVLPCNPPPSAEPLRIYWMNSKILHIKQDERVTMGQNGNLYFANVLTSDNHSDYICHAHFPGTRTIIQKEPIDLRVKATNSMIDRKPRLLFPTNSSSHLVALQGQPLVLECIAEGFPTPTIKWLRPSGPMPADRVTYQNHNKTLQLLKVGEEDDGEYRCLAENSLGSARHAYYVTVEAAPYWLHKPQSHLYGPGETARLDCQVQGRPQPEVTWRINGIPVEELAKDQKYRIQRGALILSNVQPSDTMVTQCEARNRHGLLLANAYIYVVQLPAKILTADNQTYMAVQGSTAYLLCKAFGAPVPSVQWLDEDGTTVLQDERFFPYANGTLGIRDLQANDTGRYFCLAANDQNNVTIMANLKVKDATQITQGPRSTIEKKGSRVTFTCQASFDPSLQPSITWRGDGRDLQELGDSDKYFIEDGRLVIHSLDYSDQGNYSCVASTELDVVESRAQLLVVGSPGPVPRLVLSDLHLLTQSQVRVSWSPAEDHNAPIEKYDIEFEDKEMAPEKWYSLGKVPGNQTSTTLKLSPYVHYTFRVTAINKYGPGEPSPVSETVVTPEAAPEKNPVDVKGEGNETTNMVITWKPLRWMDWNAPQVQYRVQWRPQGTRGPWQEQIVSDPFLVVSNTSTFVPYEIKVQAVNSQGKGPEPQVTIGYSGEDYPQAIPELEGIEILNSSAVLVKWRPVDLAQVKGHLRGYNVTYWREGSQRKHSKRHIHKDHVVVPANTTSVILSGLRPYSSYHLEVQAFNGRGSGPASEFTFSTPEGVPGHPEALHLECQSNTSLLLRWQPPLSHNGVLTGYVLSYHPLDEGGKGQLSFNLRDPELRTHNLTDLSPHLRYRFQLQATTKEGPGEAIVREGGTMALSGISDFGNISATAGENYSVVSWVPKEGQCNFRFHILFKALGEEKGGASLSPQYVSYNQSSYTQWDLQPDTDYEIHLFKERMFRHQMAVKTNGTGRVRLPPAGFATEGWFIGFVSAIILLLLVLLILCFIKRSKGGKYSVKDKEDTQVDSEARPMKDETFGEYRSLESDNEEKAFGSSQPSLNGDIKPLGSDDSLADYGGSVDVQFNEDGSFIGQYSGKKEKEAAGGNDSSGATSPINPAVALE

[1] = test system: SKOV3 human ovarian cancer cells; assay: Induction of apoptosis / cell death in SKOV3 cells, in situ cell death detection kit; conditions: 0.5 or 0.25 mg/mL, 48 hours
Protocol: Direct assays of induction of apoptosis may be performed using any standard technique. For example, cadherin-expressing cells (e.g., SKOV3 human ovarian cancer cells) may be plated onto poly-L-lysine coated glass slides and cultured with 500 μg/mL of modulating agent for 24-48 hours. Cells may then be fixed and assayed for cell death using any of a variety of well known methods. For example, an in situ cell death detection kit may be purchased from Boehringer Mannheim (Laval, Quebec) and used according to the manufacturer's instructions.
SKOV3 human ovarian cancer cells cultured in the presence of either N-Ac-CHAVC-NH2 (SEQ ID NO:10) or a control peptide (N-Ac-CHGVC-NH2; SEQ ID NO:20) in MEM with 10% FBS were plated onto poly-L-lysine coated glass slides. The cells were cultured for 24 or 48 hours and fixed with 4% paraformaldehyde for 30 minutes at room temperature. The slides were then washed three times with PBS and assessed for cell death. Cells were treated with 0.5 or 0.25 mg/mL of N-Ac-CHAVC-NH2 (SEQ ID NO:10) or the control N-Ac-CHGVC-NH2 (SEQ ID NO:20), as indicated. Cell death was measured as described by Gavrieli et al, J. Cell. Biol. 119:493-501, 1992 and using the In situ cell death detection kit (Boehringer Mannheim; Laval, Quebec).

OVCAR-3 = assay: Disruption of human ovarian cancer cell (OVCAR-3) adhesion; conditions: for OVCAR3 cell morphology: 24 hours
Protocol: The human ovarian cancer cell line OVCAR-3, which expresses E-cadherin, was used in these experiments. Cells were cultured in RPMI supplemented with insulin and containing 20% FCS. Cells were grown in T-250 culture flasks and maintained by periodic subculturing. Cells were harvested from flasks and seeded in individual wells of 96-well culture dishes (surface area of each well was 0.32 cm^2) at a density of 50,000 cells per well in 0.1 ml media containing the cyclic peptides (at concentrations of 1, 0.1, or 0.01 mg/ml). Media control wells were also established. Cultures were evaluated periodically by microscopic examination under both bright field and phase contrast conditions, and were maintained for 48 hours.

| effect on neurite outgrowth on 3T3 cells expressing L1 (L1) | Structure (SMILES) | effect on neurite extension over control 3T3 cells (control 3T3 cells) | cell death of SKOV3 cells [1] | OVCAR3 cell morphology (OVCAR-3; 100 μg/ml) | OVCAR3 cell morphology (OVCAR-3; 1 mg/ml) | effect on OVCAR-3 adhesion (OVCAR-3; 1, 0.1, or 0.01 mg/ml, up to 48 hours) |
| --- | --- | --- | --- | --- | --- | --- |
| did not inhibit neurite outgrowth | CC(=O)N[C@H]1CSSC[C@@H](C(N)=O)NC(=O)[C@H](C(C)C)NC(=O)[C@H](C)NC(=O)[C@H](Cc2c[nH]cn2)NC1=O [N-Ac-CHAVC-NH2, N-Ac-Cys-His-Ala-Val-Cys-NH2] | no significant effect on neurite extension over control 3T3 cells; also recorded: had no effect on the basal growth over 3T3 cells | the cells are dead; also recorded: cell death | – | – | – |
| – | CC(=O)N[C@H]1CSSC[C@@H](C(N)=O)NC(=O)[C@H](CO)NC(=O)[C@H](C(C)C)NC(=O)[C@H](C)NC(=O)[C@H](Cc2c[nH]cn2)NC1=O [N-Ac-CHAVSC-NH2, N-Ac-Cys-His-Ala-Val-Ser-Cys-NH2] (Ac-CHAVSC-NH2; disulfide 1-6) | – | – | retract form one another | round up | disrupted OVCAR-3 adhesion |
